Experimental findings from ChEMBL document CHEMBL4219044, “Challenges in the design of insulin and relaxin/insulin-like peptide mimetics” (Bioorg Med Chem, 2018) are described below.

In experiment [1] the target is T1, Insulin receptor (Homo sapiens, UniProt P06213). Nature of the experiment: Displacement of [TyrA14-125I]-human insulin from human insulin receptor isoform A expressed in baby hamster kidney cells after 2 days by gamma counting method. In kind it is cell-based.
Experiment [2] concerns the target T1, Insulin receptor. Description: Activation of recombinant human insulin receptor using biotin-KSRGDYMTMQIG as substrate after 1 hr by spectrophotometry relative to insulin.
The target in experiment [3] is Insulin receptor (Mus musculus, UniProt P15208). Description: Agonist activity at B6D2F1 mouse insulin receptor assessed as increase in glucose incorporation into lipid phase after 2 hrs in presence of D-[3-3H]glucose by TopCount microplate scintillation counting method.

Residues, ends and D or L forms follow the SMILES beside them.

T1 sequence (P06213 28-758 limits assumed): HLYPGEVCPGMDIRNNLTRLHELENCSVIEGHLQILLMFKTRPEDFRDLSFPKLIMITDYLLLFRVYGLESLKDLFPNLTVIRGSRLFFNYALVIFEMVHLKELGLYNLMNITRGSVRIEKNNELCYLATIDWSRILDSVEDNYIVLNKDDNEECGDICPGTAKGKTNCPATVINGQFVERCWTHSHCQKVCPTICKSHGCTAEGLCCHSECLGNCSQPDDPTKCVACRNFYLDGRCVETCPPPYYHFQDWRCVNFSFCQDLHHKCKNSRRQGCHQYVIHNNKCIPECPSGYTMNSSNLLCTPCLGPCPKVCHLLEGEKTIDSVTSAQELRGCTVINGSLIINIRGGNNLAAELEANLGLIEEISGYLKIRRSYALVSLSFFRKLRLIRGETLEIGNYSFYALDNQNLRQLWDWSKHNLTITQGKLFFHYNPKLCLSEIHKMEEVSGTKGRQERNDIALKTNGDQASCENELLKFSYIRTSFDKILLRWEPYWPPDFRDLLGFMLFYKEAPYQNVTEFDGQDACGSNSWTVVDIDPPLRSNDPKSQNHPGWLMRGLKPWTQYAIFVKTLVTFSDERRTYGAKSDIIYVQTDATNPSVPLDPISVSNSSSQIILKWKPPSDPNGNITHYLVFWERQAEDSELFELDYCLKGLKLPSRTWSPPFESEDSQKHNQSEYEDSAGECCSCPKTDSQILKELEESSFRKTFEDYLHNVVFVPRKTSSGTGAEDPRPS
T1 sequence (P06213 763-1382 limits assumed): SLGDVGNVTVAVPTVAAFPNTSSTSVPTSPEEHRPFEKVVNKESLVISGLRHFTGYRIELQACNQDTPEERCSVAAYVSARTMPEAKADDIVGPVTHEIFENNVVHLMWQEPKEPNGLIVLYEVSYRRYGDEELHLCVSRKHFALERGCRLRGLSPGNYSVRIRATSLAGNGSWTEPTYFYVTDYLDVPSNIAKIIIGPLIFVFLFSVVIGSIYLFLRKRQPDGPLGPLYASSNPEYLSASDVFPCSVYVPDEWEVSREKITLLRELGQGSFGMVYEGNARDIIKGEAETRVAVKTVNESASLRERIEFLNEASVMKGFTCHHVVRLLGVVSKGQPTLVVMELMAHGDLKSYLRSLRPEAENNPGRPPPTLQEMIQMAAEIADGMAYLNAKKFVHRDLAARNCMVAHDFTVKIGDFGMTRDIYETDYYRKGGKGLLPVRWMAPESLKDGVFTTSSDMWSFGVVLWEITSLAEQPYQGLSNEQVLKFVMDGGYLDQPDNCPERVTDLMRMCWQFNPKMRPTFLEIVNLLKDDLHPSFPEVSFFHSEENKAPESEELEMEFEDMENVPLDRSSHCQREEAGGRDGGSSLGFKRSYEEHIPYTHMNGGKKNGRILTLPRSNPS
Sequence of Insulin receptor (Mus musculus, UniProt P15208) (P15208 28-748 limits assumed): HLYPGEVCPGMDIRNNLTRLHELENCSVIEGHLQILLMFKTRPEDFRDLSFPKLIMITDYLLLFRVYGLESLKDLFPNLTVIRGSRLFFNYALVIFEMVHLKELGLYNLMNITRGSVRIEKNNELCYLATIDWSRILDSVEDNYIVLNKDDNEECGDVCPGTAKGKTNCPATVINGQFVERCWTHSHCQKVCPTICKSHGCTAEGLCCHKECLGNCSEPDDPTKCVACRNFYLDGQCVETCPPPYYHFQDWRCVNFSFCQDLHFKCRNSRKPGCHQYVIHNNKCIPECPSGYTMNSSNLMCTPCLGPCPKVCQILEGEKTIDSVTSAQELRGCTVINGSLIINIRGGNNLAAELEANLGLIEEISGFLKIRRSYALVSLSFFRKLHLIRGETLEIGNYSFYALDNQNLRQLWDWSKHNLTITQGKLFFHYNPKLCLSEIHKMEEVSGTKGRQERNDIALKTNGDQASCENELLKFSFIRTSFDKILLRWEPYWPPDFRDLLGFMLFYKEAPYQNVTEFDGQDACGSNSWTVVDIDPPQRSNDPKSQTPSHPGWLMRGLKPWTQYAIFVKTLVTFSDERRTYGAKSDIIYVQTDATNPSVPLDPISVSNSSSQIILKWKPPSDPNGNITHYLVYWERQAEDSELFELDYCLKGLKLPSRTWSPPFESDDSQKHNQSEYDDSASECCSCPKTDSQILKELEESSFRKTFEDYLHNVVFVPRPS
Sequence of Insulin receptor (Mus musculus, UniProt P15208) (P15208 753-1372 limits assumed): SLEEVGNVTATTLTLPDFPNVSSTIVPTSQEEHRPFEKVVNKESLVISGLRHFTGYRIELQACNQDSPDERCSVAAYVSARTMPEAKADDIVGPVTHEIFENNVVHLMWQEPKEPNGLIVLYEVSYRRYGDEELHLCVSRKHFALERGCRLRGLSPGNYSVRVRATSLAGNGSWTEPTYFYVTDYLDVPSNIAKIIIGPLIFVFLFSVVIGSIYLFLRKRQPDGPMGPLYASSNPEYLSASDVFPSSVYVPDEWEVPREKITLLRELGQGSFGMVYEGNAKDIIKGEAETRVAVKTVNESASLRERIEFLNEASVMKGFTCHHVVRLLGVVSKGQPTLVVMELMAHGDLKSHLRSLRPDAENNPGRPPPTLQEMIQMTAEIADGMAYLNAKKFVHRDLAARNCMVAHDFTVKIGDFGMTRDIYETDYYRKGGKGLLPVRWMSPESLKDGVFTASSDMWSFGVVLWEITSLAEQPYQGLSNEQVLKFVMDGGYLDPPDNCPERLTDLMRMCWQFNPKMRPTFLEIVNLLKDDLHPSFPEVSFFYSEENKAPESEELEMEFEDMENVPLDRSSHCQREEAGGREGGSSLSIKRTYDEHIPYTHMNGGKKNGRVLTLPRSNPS

As for `CC(C)C[C@H](NC(=O)[C@H](CCC(N)=O)NC(=O)[C@H](CCCNC(=N)N)NC(=O)[C@H](CCC(=O)O)NC(=O)[C@H](Cc1ccccc1)NC(=O)[C@H](Cc1c[nH]c2ccccc12)NC(=O)[C@H](CC(=O)O)NC(=O)[C@H](Cc1ccc(O)cc1)NC(=O)[C@H](Cc1ccccc1)NC(=O)[C@H](CO)NC(=O)[C@H](CCC(=O)O)NC(=O)[C@H](CC(=O)O)NC(=O)[C@H](CC(C)C)NC(=O)[C@H](CO)NC(=O)CNC(=O)[C@H](CO)NC(=O)[C@@H]1CCCN1C(=O)[C@H](CS)NC(=O)CNC(=O)[C@H](CCCNC(=N)N)NC(=O)CNC(=O)[C@H](Cc1ccc(O)cc1)NC(=O)[C@@H](NC(=O)[C@H](CCC(=O)O)NC(=O)[C@H](CS)NC(=O)[C@H](CCC(=O)O)NC(=O)[C@@H](NC(=O)[C@H](CCC(N)=O)NC(=O)[C@H](C)NC(=O)[C@H](Cc1c[nH]c2ccccc12)NC(=O)[C@H](CCC(=O)O)NC(=O)[C@H](CCC(=O)O)NC(=O)[C@H](CCC(=O)O)NC(=O)[C@H](CC(C)C)NC(=O)[C@@H](N)CO)C(C)C)C(C)C)C(=O)NCC(=O)O` (H-SLEEEWAQVECEVYGRGCPSGSLDESFYDWFERQLG-OH), on Insulin receptor [1], the Kd came to 0.02 nM. On Insulin receptor [2], the Activity was found to be 10%. On Insulin receptor [3], the EC50 worked out at 4 nM.
